# How the values were obtained:
# Format in all cases: functional, Rattus norvegicus
# [1] = Antagonistic activity towards NMDA receptor 1A/2C subtype was determined
# [2] = Antagonistic activity towards NMDA receptor 1A/2B subtype was determined
# [3] = Antagonistic activity towards NMDA receptor 1A/2A subtype was determined
IC50 [1],IC50 [2],IC50 [3],Compound
> 300 µM,0.33 µM,> 300 µM,O=C(/C=C/c1ccc(O)cc1)NCCc1ccc(Cl)cc1
> 300 µM,9 µM,> 300 µM,N#C/C(=C\C(=O)NCCc1ccc(O)cc1)c1ccc(Cl)cc1
175 µM,7.4 µM,> 300 µM,O=C(/C=C/c1ccc(Cl)cc1)NCCc1cccc(O)c1
> 300 µM,0.17 µM,> 300 µM,O=C(/C=C/c1ccc(Cl)cc1)NCCc1ccc(O)cc1
> 300 µM,> 300 µM,> 300 µM,O=C(/C=C/c1ccc(Cl)cc1)NCCc1ccccc1
105 µM,3.4 µM,78 µM,N#C/C(=C\c1ccc(Cl)cc1)C(=O)NCCc1ccc(O)cc1
200 µM,21 µM,> 300 µM,O=C(/C=C/c1ccc(O)cc1)NCCc1ccc(O)cc1 [N-P-COUMAROYL TYRAMINE]
> 300 µM,> 300 µM,160 µM,O=C(/C=C/c1ccc(Cl)cc1)NCCc1ccc(Cl)cc1
> 300 µM,0.68 µM,> 300 µM,O=C(/C=C/c1ccccc1)NCCc1ccc(O)cc1

# From ChEMBL document CHEMBL1130622, “N-(2-(4-hydroxyphenyl)ethyl)-4-chlorocinnamide: a novel antagonist at the 1A/2B NMDA receptor subtype” (Bioorg Med Chem Lett, 1998)
